Reference: US11045464B2, “Parenteral formulations of dopamine agonists” (VeroScience LLC, priority 2007, dated 2021)

Test: Stability of SKF-38393 in solution
Format: physicochemical
Source text: Formulation 22S was a combination of […], employing the 11S base formulation with the two active agents. […] A short study has been run to ensure the stability of SKF-38393. […] In contrast, in alcohol solution, the API decomposes rapidly, with >5% of the API already lost within the first hour.

API lost (decomposition) (in alcohol solution, within the first hour): > 5%
decomposition of SKF-38393 (in water buffered by the acidic acid, within 12 h): no decomposition
Structure (SMILES): Oc1cc2c(cc1O)C(c1ccccc1)CNCC2 (centres unmarked) [SKF-38393]
